Measurements taken from patent US8044206B2, “Nitrogen—containing heterocyclic derivatives having 2,6-disubstituted styryl” (Astellas Pharma Inc., priority 2003, dated 2011).
Structures can show the parent of a compound that is named as a salt.

These compounds were tested on sodium channel (assay: [14C] guanidine uptake induced by veratridine in rat cerebral cortex primary neurons (sodium channel inhibitory action)). Conditions: [14C] guanidine uptake induced by 100 μM veratridine, specific uptake = portion inhibited by 1 mM mexiletine, read-out: Na Channel Inhibition IC50.
Type: cell-based
Procedure: The [^14C] guanidine uptake experiment was performed by the method of Bonisch et al. (British Journal of Pharmacology 108, 436-442, 1993) with some modifications. The [^14C] guanidine was used as a sodium tracer, and the inhibitory activity on uptake of [^14C] guanidine induced by veratridine as a sodium channel activator into rat cerebral cortex primary neurons was measured.
Pregnant rats (Wistar, female, 19 days of gestation) were anesthetized with ether. The animals were bled to death by giving incision through the carotid artery. The fetuses were taken out of the pregnant rats and after ethanol sterilization, the cerebral cortex was removed from the fetuses. The cerebral cortex was digested with papain and dispersed in culture medium, followed by plating on a poly-L-lysine-coated 96-well white plate at a density of 2.5×10^5 cells/well. Incubation was performed in a CO2 incubator (37° C., 5% CO2) for 2 days.
After each well was washed once with an assay buffer (135 mM choline Cl, 5 mM KCl, 1 mM MgSO4, 5.5 mM glucose, 1 mg/mL BSA, 10 mM Hepes-Tris, pH 7.4), a fresh assay buffer was added to the well, followed by incubation at 25° C. for 10 minutes. Then, a reaction solution (a test compound, [^14C] guanidine and 100 μM, veratridine) was replaced for the buffer, followed by incubation at 25° C. for 15 minutes. The reaction was terminated by washing 3 times with a cold wash buffer (135 mM NaCl, 5 mM KCl, 1 mM MgSO4, 10 mM Hepes-Tris, pH 7.4). To each well, 17 μl of 0.1N NaOH was added. After agitation, 100 μl of scintillator was added to the well and further agitation was continued. The radioactivity was quantified by a liquid scintillation counter. In each experiment, the sodium channel-specific uptake of the whole uptake was designated as portion that was inhibited by 1 mM mexiletine. The action of the test compound on sodium channel is expressed as 50% inhibition concentration (IC50) based on the specific uptake.

SMILES	IC50
CCc1cccc(CC)c1/C=C/C1CCNCC1 [Example 40]	8.4 µM
Cc1cccc(C)c1/C=C/C1CCN(C(=O)CN2CCC(Cc3ccccc3)CC2)CC1 [Example 165]	2.3 µM
CCCCN(CCCC)C(=O)c1cc(C)c(/C=C/C2CCNCC2)c(C)c1 [Example 51]	15 µM
Cc1cccc(C)c1/C=C/C1CCN(C(=O)CNCCN)CC1 [Example 198]	8.5 µM
Cc1cccc(C)c1/C=C/C1CCN(C(=O)CN2CCSCC2)CC1 [Example 185]	6.7 µM
Cc1cccc(C)c1/C=C/C1CCN(Cc2ccccc2)CC1 [Example 73, 1-benzyl-4-[(E)-2-(2,6-dimethylphenyl)vinyl]piperidine]	1.9 µM
Cc1cccc(C)c1/C=C/CC1CCN(C(=O)CN2CCOCC2)CC1 [Example 103]	5 µM
Cc1cccc(C)c1C=CC1CCN(C(=O)C2COCCN2)CC1 (centres unmarked) [Example 122]	9.4 µM
Cc1cc(Br)cc(C)c1/C=C\C1CCNCC1 [Example 56]	6.7 µM
O=C(CN1CCOCC1)N1CCC(/C=C/c2c(Cl)cccc2Cl)CC1 [Example 98]	12 µM
Cc1cccc(C)c1/C=C/C1CCN(C(=O)CN(C)CCN2CCOCC2)CC1 [Example 213]	3.7 µM
Cc1cccc(C)c1/C=C/C1CCN(C(=O)CN2CC=CC2)CC1 [Example 145]	6 µM
Cc1cccc(C)c1C=CC1CCN(C(=O)CN(C)CC2CCCO2)CC1 (centres unmarked) [Example 211]	3 µM
Cc1cccc(C)c1/C=C/c1ccncc1 [Example 25-2]	29 µM
COc1cc(C)c(/C=C/C2CCNCC2)c(C)c1 [Example 54]	19 µM
Cc1cccc(C)c1/C=C/C1CCN(C(=O)CN2CCN(C3CCCCC3)CC2)CC1 [Example 176]	2.5 µM
Cc1cccc(C)c1C=CC1CCN(C(=O)CN2CC(C)CC(C)C2)CC1 (centres unmarked) [Example 153, 1-(2-{4-(E)-2-(2,6-dimethylphenyl)vinyl]piperidin-1-yl}-2-oxoethyl)-3,5-dimethyl piperidine]	2.4 µM
Cc1cccc(C)c1/C=C/[C@H]1CCNC[C@@H]1C [Example 68, 4-[(E)-2-(2,6-dimethylphenyl)vinyl]-3-methylpiperidine hydrochloride]	8.7 µM
Cc1cccc(C)c1C=CC1CCN(C(=O)CNCC2CCCO2)CC1 (centres unmarked) [Example 130]	3.4 µM
Cc1cccc(C)c1C=CC1CCN(C(=O)CN2CCCC3CCCCC32)CC1 (centres unmarked) [Example 192]	1.1 µM
COCCN1CCC(/C=C/c2c(C)cccc2C)CC1 [Example 75]	3.5 µM
Cc1cccc(C)c1/C=C/C1CCN(C(=O)CNC2CCOCC2)CC1 [Example 129, (2-{4-[(E)-2-(2,6-dimethylphenyl)vinyl]piperidin-1-yl}-2-oxoethyl)tetrahydro-2H-pyran-4-ylamine]	4.2 µM

What follows are compounds tested on mice with streptozotocin (STZ)-induced diabetic neuropathy (assay: Analgesic action in mice with streptozotocin (STZ)-induced diabetic neuropathy, tail pinch test). Conditions: male ICR mice, Day 15 after STZ, oral 30 mg/kg, 45 minutes prior to measurement, latency after minus before administration.
Type: in vivo
Procedure: Representative compounds of Compound (I) of the present invention were assessed for the analgesic action in mice with streptozotocin (STZ)-induced diabetic neuropathy to confirm the effect on neuropathic pain. The assessment was performed by the method of Kamei et al. (Pharmacology Biochemistry & Behavior 39, 541-544, 1991) with some modifications.
Male ICR mice of 4 weeks old were intraperitoneally injected with 200 mg/kg weight of STZ to prepare mice with diabetic neuropathic pain. The analgesic action was assessed by the tail pinch test. […] On Day 14 following the STZ injection, a pretest was carried out to determine the response latency before the administration of a test compound. Only the animals showing not longer than 3 seconds of the response latency in the pretest were used for the test compound assessment on the following day (Day 15 after STZ injection).
In the test compound assessment, the response latency after the administration of a test compound was measured. The test compound was orally administered at a dose of 30 mg/kg, 45 minutes prior to the response latency measurement
The analgesic action of a test compound is expressed as prolongation of latency (in seconds) calculated by the formula: (response latency after administration of a test compound)−(response latency before administration of a test compound).

SMILES	Anti-STZ-induced pain after oral administration: Latency prolongation
Cc1cccc(C)c1/C=C/C1CCCN(C(=O)CN2CCOCC2)C1 (centres unmarked) [Example 101]	2.0 s
Cc1cc(C#N)cc(C)c1/C=C/C1CCNCC1 [Example 49, 3,5-dimethyl-4-[(E)-2-piperidin-4-ylvinyl]benzonitrile]	2.2 s
Cc1cccc(C)c1/C=C/C1CCN(C(=O)CN2C[C@H]3C[C@@H]2CN3)CC1 [Example 205, (1R,4R)-2-(2-{4-[(E)-2-(2,6-dimethylphenyl)vinyl]piperidin-1-yl}-2-oxoethyl)-2,5-diazabicyclo[2.2.1]heptane]	1.6 s
Cc1cccc(C)c1/C=C/C1CCN(C(=O)Cn2ccnc2)CC1.Cl [Example 125, 4-[(E)-2-(2,6-dimethylphenyl)vinyl]-1-(1H-imidazol-1-ylacetyl)piperidine monohydrochloride]	1.6 s
Cc1cccc(C)c1/C=C/C1CCN(C(=O)CN2CCOC(CO)C2)CC1 (centres unmarked) [Example 180, [4-(2-{4-[(E)-2-(2,6-dimethylphenyl)vinyl]piperidin-1-yl}-2-oxoethyl)morpholine-2-yl]methanol]	2.3 s
Cc1cccc(C)c1/C=C/C1CCN(C(=O)CN2CCC(N)CC2)CC1 [Example 203, 1-(2-{4-[(E)-2-(2,6-dimethylphenyl)vinyl]piperidin-1-yl}-2-oxoethyl)piperidine-4-amine]	1.7 s
Cc1cccc(C)c1/C=C/C1CCN(C(=O)CN2CCNCC2)CC1 [Example 204, 1-(2-{4-[(E)-2-(2,6-dimethylphenyl)vinyl]piperidin-1-yl}-2-oxoethyl)piperazine]	2.4 s
Cc1cccc(C)c1/C=C/C1CCCCN1C(=O)CN1CCOCC1 (centres unmarked) [Example 102, 4-(2-{2-[(E)-2-(2,6-dimethylphenyl)vinyl]piperidin-1-yl}-2-oxoethyl)morpholine]	2.1 s
Cc1cccc(C)c1/C=C/C1CCN(C(=O)CN2CCC(N3CCCC3)CC2)CC1 [Example 170, 4-[(E)-2-(2,6-dimethylphenyl)vinyl]-1-[(4-pyrolidin-1-ylpiperidin-1-yl)acetyl]piperidine]	1.7 s
Cc1cccc(C)c1/C=C/C1CCN(C(=O)CN2CCCCC2C(N)=O)CC1 (centres unmarked) [Example 150, 1-(2-{4-[(E)-2-(2,6-dimethylphenyl)vinyl]piperidin-1-yl}-2-oxoethyl)piperidine-2-carboxamide]	1.7 s
Cc1cc(Oc2ccccc2)cc(C)c1/C=C/C1CCN(C(=O)CN2CCOCC2)CC1 [Example 99, 4-(2-{4-[(E)-2-(2,6-dimethyl-4-phenoxyphenyl)vinyl]piperidin-1-yl}-2-oxoethyl) morpholine]	1.7 s
Cc1cccc(C)c1/C=C/C1CCN(C(=O)c2nc(N)n[nH]2)CC1 [Example 87, 5-({4-[(E)-2-(2,6-dimethylphenyl)vinyl]piperidin-1-yl}carbonyl)-1H-1,2,4-triazol-3-amine]	1.6 s
Cc1cccc(C)c1/C=C/C1CCN(C(=O)C2(N)CCC2)CC1 [Example 110, [1-({4-[(E)-2-(2,6-dimethylphenyl)vinyl]piperidin-1-yl}carbonyl)cyclobutyl]amine]	2.1 s
Cc1cccc(C)c1/C=C/C1CCN(C(=O)CN2CCCOCC2)CC1 [Example 189, 4-(2-{4-[(E)-2-(2,6-dimethylphenyl)vinyl]piperidin-1-yl}-2-oxoethyl)-1,4-oxazepane]	2.4 s
Cc1cccc(C)c1/C=C/C1CCN(C(=O)CNC2COC2)CC1 [Example 126, N-(2-{4-[(E)-2-(2,6-dimethylphenyl)vinyl]piperidin-1-yl}-2-oxoethyl)oxetane-3-amine]	1.5 s
Cc1cccc(C)c1/C=C/C1CCN(C(=O)CN2CCOCC2)CC1 [Example 179, 4-(2-{4-[(E)-2-(2,6-dimethylphenyl)vinyl]piperidin-1-yl}-2-oxoethyl)morpholine]	1.8 s
Cc1cccc(C)c1/C=C/C1CCN(C(=O)C(C)(C)N)CC1 [Example 108, (2-{4-[(E)-2-(2,6-dimethylphenyl)vinyl]piperidin-1-yl}-1,1-dimethyl-2-oxoethyl)amine monohydrochloride]	1.8 s
CC(=O)NCCNCC(=O)N1CCC(/C=C/c2c(C)cccc2C)CC1 [Example 134, N-{2-[(2-[4-[(E)-2-(2,6-dimethylphenyl)vinyl]piperidin-1-yl]-2-oxoethyl)amino]ethyl}acetamide]	1.7 s
Cc1cccc(C)c1/C=C/C1CCN(C(=O)[C@@H]2CCCN2)CC1 [Example 114, 4-[(E)-2-(2,6-dimethylphenyl)vinyl]-1-[(2S)-pyrolidin-2-ylcarbonyl]piperidine]	2.4 s
